Source: patent publication US20110046056A1, “APOA-1 PEPTIDE MIMETICS” (priority 2007, published 2011)
Like-named read-outs stand apart in the source and are kept apart here. *1 amine or outer side, *2 acyl side, *3 side chain or, on linkers, in order; H or OH if unused. Where a SMILES comes first, the peptide text is derived from it. Bridges are numbered along the chain shown (N, C = ends). Where no end group is shown, it is not given here. [ ]: non-standard residue; d: D form. S6H = (2S)-2-aminooct-7-enoic acid, C=CCCCC[C@H](N[*:1])C(=O)[*:2]; R5Me = hydrocarbon side chain-substituted amino acid; dNle(6-ylidene) = O=C([C@@H](CCCC=[*:3])N[*:1])[*:2]; dGly(6-heptenyl) = C=CCCCCC[C@@H](N)C(=O)O; X2 = O=C([C@@H](CCCCC=[*:3])N[*:1])[*:2]; X3 = O=C([C@H](CCCCCC=[*:3])N[*:1])[*:2]; Ala(5-hexenyl) = C=CCCCCC[C@H](N)C(=O)O; dNle(6-vinyl) = C=CCCCC[C@@H](N)C(=O)O; Gla = N[C@@H](CC(C(=O)O)C(=O)O)C(=O)O; R5 = C=CCCC[C@@](C)(N)C(=O)O; 12H3 = not defined here

Assays:
[1] = Lipid (liposome) solubilization, turbidimetric method; assay type: biochemical
Protocol: As noted above, the other important parameter was phospholipid solubilization. A turbidimetric method is used to determine the solubilization capacity of peptides of the present invention. First, a three-fold serial titration of the peptide is prepared in a polypropylene v-shaped 96-well plate. The eight-point titration is done in phosphate-buffered saline (PBS, pH 7.5) or DMSO from a starting concentration that allows for addition to an optically-clear bottomed assay plate in <100 μl aliquots to yield a starting concentration of 500 μM in 200 μl final well volume. PBS is then added to each well to bring the total volume to 100 μl. Any bubbles in the wells must be dispersed to avoid erroneous results. Next, from a turbid but homogeneous emulsion of dimyristoyl phosphatidylcholine at 0.5 mg/ml in PBS, 100 μl is added to each well in the assay plate, the plate is inserted into the NEPHELOSTAR (BMG LABTECH INSTRUMENTS), and readings are taken immediately and every 15 minutes over 2 hours.
A true 0-point value is calculated by averaging the readings of the wells with phospholipid but no peptide. For each peptide concentration, a percent decrease in turbidity is calculated by subtracting the 0-point value from the corresponding 30 and 120 minute readings and dividing by that 0-point value. Finally the EC50 values for both time points are determined using PRISM software (Table 2).

[2] = molecular target: T1, ABCA1 cholesterol transporter protein (Mus musculus, UniProt P41233); experiment: ABCA1-dependent cholesterol efflux from RAW mouse macrophage cells (in vitro RCT assay); assay type: cell-based; conditions: for EC50: read-out: EC50 in the cholesterol efflux assay (RCT in vitro assay)
T1 construct: endogenous in cells
Summary of the method: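 RAW macrophages labelled with ^3H-cholesterol (5 μCi/ml) 24 h, equilibrated overnight serum-free, then given eight-point peptide titrations 24 h with or without 150 μM CPT-cAMP. Percent efflux = medium counts/(medium + lysate); plain-medium efflux subtracted from cAMP value gives ABCA1-dependent efflux, fitted for EC50.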

[3] = molecular target: T2, ATP-binding cassette transporter A1 (ABCA1) (mouse, UniProt P41233 1-2261); experiment: cell-based or functional assay
[4] = molecular target: T2, ATP-binding cassette transporter A1 …; experiment: cell-based or functional assay; remark: listed apart in the source
[5] = read-out: IC50 in the liposome solubilization assay

T2 sequence (P41233 whole entry): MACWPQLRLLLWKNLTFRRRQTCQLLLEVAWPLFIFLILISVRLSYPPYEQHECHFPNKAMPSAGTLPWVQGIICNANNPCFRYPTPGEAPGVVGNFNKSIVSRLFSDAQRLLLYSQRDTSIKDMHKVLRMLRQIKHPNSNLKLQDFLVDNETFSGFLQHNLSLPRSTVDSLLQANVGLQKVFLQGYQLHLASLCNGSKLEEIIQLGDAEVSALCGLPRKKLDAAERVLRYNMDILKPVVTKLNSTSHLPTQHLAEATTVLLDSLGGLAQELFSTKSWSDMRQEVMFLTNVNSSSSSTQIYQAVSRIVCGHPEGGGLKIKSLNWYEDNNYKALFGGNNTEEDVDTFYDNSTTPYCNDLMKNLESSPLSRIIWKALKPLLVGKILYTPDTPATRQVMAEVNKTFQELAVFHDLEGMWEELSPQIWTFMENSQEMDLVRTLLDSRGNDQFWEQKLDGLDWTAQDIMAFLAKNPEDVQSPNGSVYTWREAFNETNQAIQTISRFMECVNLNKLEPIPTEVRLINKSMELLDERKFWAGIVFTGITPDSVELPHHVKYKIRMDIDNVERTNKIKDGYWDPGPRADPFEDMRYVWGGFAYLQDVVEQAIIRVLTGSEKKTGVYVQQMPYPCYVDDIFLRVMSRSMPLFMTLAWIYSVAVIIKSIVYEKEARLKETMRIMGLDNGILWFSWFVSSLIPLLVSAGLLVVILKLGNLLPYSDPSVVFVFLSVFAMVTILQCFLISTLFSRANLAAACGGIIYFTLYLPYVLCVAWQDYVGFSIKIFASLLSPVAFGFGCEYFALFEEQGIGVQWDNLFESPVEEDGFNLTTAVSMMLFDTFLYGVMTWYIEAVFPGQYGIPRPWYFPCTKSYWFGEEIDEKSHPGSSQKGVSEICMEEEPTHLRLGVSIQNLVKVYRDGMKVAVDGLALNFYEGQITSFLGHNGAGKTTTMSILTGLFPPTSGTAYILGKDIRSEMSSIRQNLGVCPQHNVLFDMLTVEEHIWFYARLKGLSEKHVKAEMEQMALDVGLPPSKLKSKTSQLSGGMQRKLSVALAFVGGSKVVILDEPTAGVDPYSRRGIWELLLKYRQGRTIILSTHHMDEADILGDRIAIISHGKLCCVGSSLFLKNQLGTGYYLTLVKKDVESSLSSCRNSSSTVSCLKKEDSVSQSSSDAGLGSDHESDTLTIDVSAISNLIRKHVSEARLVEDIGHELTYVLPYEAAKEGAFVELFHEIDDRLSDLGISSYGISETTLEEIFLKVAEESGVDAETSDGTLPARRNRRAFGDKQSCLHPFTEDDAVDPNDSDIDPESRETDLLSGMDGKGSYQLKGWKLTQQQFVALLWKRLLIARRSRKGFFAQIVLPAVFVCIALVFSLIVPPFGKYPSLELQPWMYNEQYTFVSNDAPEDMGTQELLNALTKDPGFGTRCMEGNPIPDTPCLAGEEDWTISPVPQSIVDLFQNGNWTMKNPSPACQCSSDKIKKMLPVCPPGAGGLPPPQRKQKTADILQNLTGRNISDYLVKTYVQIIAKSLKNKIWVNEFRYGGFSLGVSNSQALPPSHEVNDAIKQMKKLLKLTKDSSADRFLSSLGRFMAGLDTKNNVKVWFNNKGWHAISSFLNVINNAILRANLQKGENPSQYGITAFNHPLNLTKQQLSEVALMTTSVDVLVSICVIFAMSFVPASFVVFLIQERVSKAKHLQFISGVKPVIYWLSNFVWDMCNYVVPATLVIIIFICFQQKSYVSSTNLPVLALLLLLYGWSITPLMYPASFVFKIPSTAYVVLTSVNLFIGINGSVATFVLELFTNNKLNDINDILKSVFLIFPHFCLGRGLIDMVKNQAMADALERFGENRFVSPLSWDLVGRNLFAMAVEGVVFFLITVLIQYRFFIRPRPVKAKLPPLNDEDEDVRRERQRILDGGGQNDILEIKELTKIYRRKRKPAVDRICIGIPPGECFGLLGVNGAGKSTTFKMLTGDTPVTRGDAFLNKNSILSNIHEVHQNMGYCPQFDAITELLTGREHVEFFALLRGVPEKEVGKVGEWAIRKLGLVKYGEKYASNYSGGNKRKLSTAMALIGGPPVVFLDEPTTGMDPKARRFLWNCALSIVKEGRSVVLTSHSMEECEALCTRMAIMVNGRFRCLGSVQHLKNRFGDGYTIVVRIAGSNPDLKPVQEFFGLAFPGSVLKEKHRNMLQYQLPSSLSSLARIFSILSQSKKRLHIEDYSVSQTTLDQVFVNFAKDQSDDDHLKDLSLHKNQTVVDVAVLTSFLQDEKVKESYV
T1 sequence (P41233 whole entry): as above

Molecule: 16 (Ac-PVLDEFRE[R5Me]LNE[R5Me]LEALKQKLK; not fully specified (C-terminus)) [compound 16]
- IC50 ([1]; Measured at 2 h, read-out: LIPID SOLUBILIZATION IC50): 24 µM

Molecule: C=CCCC[C@@H](NC(=O)[C@H](CCC(=O)O)NC(=O)[C@H](CC(N)=O)NC(=O)[C@H](CC(C)C)NC(=O)[C@@H](CCCC=C)NC(=O)[C@H](CCC(=O)O)NC(=O)[C@H](CCCNC(=N)N)NC(=O)[C@H](Cc1ccccc1)NC(=O)[C@H](CCC(=O)O)NC(=O)[C@H](CC(=O)O)NC(=O)[C@H](CC(C)C)NC(=O)[C@@H](NC(=O)[C@@H]1CCCN1C(C)=O)C(C)C)C(=O)N[C@@H](CC(C)C)C(=O)N[C@@H](CCC(=O)O)C(=O)N[C@@H](C)C(=O)N[C@@H](CC(C)C)C(=O)N[C@@H](CCCCN)C(=O)N[C@@H](CCC(N)=O)C(=O)N[C@@H](CCCCN)C(=O)N[C@@H](CC(C)C)C(=O)N[C@@H](CCCCN)C(N)=O [SEQ ID NO 9, PVLDEFRER5HLNER5HLEALKQKLK] (Ac-PVLDEFRE[dNle(6-ylidene)]LNE[dNle(6-ylidene)]LEALKQKLK-NH2; C-terminus assumed)
- IC50 [1, 5]: 91 µM

Molecule: C=CCCCCC[C@H](NC(=O)[C@H](CCC(=O)O)NC(=O)[C@H](CC(=O)O)NC(=O)[C@H](CC(C)C)NC(=O)[C@@H](NC(=O)[C@@H]1CCCN1C(C)=O)C(C)C)C(=O)N[C@@H](CCCNC(=N)N)C(=O)N[C@@H](CCC(=O)O)C(=O)N[C@@H](CCCCN)C(=O)N[C@@H](CC(C)C)C(=O)N[C@@H](CC(N)=O)C(=O)N[C@@H](CCC(=O)O)C(=O)N[C@H](CCCCC=C)C(=O)N[C@@H](CC(C)C)C(=O)N[C@@H](CCC(=O)O)C(=O)N[C@@H](C)C(=O)N[C@@H](CC(C)C)C(=O)N[C@@H](CCCCN)C(=O)N[C@@H](CCC(N)=O)C(=O)N[C@@H](CCCCN)C(=O)N[C@@H](CC(C)C)C(=O)N[C@@H](CCCCN)C(N)=O [SEQ ID NO 10, PVLDES7HREKLNER6HLEALKQKLK] (Ac-PVLDE[Ala(5-hexenyl)]REKLNE[dNle(6-vinyl)]LEALKQKLK-NH2; C-terminus assumed)
- IC50 [1, 5]: 44 µM
- EC50 [2]: 1.2 µM

Molecule: CC(=O)N1CCC[C@H]1C(=O)N[C@H](C(=O)N[C@@H](CC(C)C)C(=O)N[C@@H](CC(=O)O)C(=O)N[C@@H](CCC(=O)O)C(=O)N[C@@H](Cc1ccccc1)C(=O)N[C@@H](CCCNC(=N)N)C(=O)N[C@@H](CCC(=O)O)C(=O)N[C@@H]1CCCC=CCCC[C@H](C(=O)N[C@@H](CC(C)C)C(=O)N[C@@H](CCC(=O)O)C(=O)N[C@@H](C)C(=O)N[C@@H](CC(C)C)C(=O)N[C@@H](CCCCN)C(=O)N[C@@H](CCC(N)=O)C(=O)N[C@@H](CCCCN)C(=O)N[C@@H](CC(C)C)C(=O)N[C@@H](CCCCN)C(N)=O)NC(=O)[C@H](CCC(=O)O)NC(=O)[C@H](CC(N)=O)NC(=O)[C@H](CC(C)C)NC1=O)C(C)C [SEQ ID NO 12, PVLDEFRER5HLNER5HLEALKQKLK (CYCLO R5H9-R5H13)] (Ac-PVLDEFRE[dNle(6-ylidene)]LNE[dNle(6-ylidene)]LEALKQKLK-NH2; staple 9-13; C-terminus assumed)
- IC50 [1, 5]: 60 µM
- EC50 [2]: 10 µM

Molecule: C=CCCCCC[C@H](NC(=O)[C@H](CCC(=O)O)NC(=O)[C@H](CC(N)=O)NC(=O)[C@H](CC(C)C)NC(=O)[C@H](CCCCN)NC(=O)[C@H](CCC(=O)O)NC(=O)[C@H](CCCNC(=N)N)NC(=O)[C@@H](CCCCC=C)NC(=O)[C@H](CCC(=O)O)NC(=O)[C@H](CC(=O)O)NC(=O)[C@H](CC(C)C)NC(=O)[C@@H](NC(=O)[C@@H]1CCCN1C(C)=O)C(C)C)C(=O)N[C@@H](CC(C)C)C(=O)N[C@@H](CCC(=O)O)C(=O)N[C@@H](C)C(=O)N[C@@H](CC(C)C)C(=O)N[C@@H](CCCCN)C(=O)N[C@@H](CCC(N)=O)C(=O)N[C@@H](CCCCN)C(=O)N[C@@H](CC(C)C)C(=O)N[C@@H](CCCCN)C(N)=O [SEQ ID NO 13, PVLDER6HREKLNES7HLEALKQKLK] (Ac-PVLDE[dNle(6-vinyl)]REKLNE[Ala(5-hexenyl)]LEALKQKLK-NH2; C-terminus assumed)
- IC50 [1, 5]: 25 µM

Molecule: CC(=O)N1CCC[C@H]1C(=O)N[C@H](C(=O)N[C@@H](CC(C)C)C(=O)N[C@@H](CC(=O)O)C(=O)N[C@@H](CCC(=O)O)C(=O)N[C@@H]1CCCCC=CCCCCC[C@@H](C(=O)N[C@@H](CC(C)C)C(=O)N[C@@H](CCC(=O)O)C(=O)N[C@@H](C)C(=O)N[C@@H](CC(C)C)C(=O)N[C@@H](CCCCN)C(=O)N[C@@H](CCC(N)=O)C(=O)N[C@@H](CCCCN)C(=O)N[C@@H](CC(C)C)C(=O)N[C@@H](CCCCN)C(N)=O)NC(=O)[C@H](CCC(=O)O)NC(=O)[C@H](CC(N)=O)NC(=O)[C@H](CC(C)C)NC(=O)[C@H](CCCCN)NC(=O)[C@H](CCC(=O)O)NC(=O)[C@H](CCCNC(=N)N)NC1=O)C(C)C [SEQ ID NO 14, PVLDER6HREKLNES7HLEALKQKLK (CYCLO R6H6-S7H13)] (Ac-PVLDE[X2]REKLNE[X3]LEALKQKLK-NH2; staple 6-13; C-terminus assumed)
- IC50 [1, 5]: 43 µM
- EC50 [2]: 2 µM

Molecule: C=CCCCC[C@@H](NC(=O)[C@H](CCC(=O)O)NC(=O)[C@H](CC(N)=O)NC(=O)[C@H](CC(C)C)NC(=O)[C@H](CCCCN)NC(=O)[C@H](CCC(=O)O)NC(=O)[C@H](CCCNC(=N)N)NC(=O)[C@H](Cc1ccccc1)NC(=O)[C@H](CCC(=O)O)NC(=O)[C@H](CC(=O)O)NC(=O)[C@H](CC(C)C)NC(=O)[C@@H](NC(=O)[C@@H]1CCCN1C(C)=O)C(C)C)C(=O)N[C@@H](CC(C)C)C(=O)N[C@@H](CCC(=O)O)C(=O)N[C@@H](C)C(=O)N[C@@H](CC(C)C)C(=O)N[C@@H](CCCCN)C(=O)N[C@@H](CCC(N)=O)C(=O)N[C@@H](CCCCN)C(=O)N[C@@H](CC(C)C)C(=O)N[C@@H](CCCCN)C(N)=O [SEQ ID NO 18, PVLDEFREKLNER6HLEALKQKLK] (Ac-PVLDEFREKLNE[dNle(6-vinyl)]LEALKQKLK-NH2; C-terminus assumed)
- IC50 [1, 5]: 32 µM

Molecule: CC(=O)N1CCC[C@H]1C(=O)N[C@H](C(=O)N[C@@H](CC(C)C)C(=O)N[C@@H](CC(=O)O)C(=O)N[C@@H](CCC(=O)O)C(=O)N[C@@H](Cc1ccccc1)C(=O)N[C@@H](CCCNC(=N)N)C(=O)N[C@@H](CC(C(=O)O)C(=O)O)C(=O)N[C@@H](CCCCN)C(=O)N[C@@H](CC(C)C)C(=O)N[C@@H](CC(N)=O)C(=O)N[C@@H](CCC(=O)O)C(=O)N[C@@H](C)C(=O)N[C@@H](CC(C)C)C(=O)N[C@@H](CCC(=O)O)C(=O)N[C@@H](C)C(=O)N[C@@H](CC(C)C)C(=O)N[C@@H](CCCCN)C(=O)N[C@@H](CCC(N)=O)C(=O)N[C@@H](CCCCN)C(=O)N[C@@H](CC(C)C)C(=O)N[C@@H](CCCCN)C(N)=O)C(C)C [compound 3] (Ac-PVLDEFR[Gla]KLNEALEALKQKLK-NH2; C-terminus assumed)
- LIPID SOLUBILIZATION IC50 ([1]; Measured at 2 h): NOT ACTIVE

Molecule: Ac-PVLDEFREKLNEELEALKQKLK-NH2 [SEQ ID NO 1, reference compound]
- lipid binding / ability to clear liposome turbidity, in words [1]: inactive
- activity in the cholesterol efflux / in vitro RCT assay, in words [2]: inactive

Molecule: PVLDEFREKLNEELEALKQKLK [compound 1]
- LIPID SOLUBILIZATION IC50 ([1]; Measured at 2 h): NOT ACTIVE
- ABCA1-DEPENDENT CHOLESTEROL EFFLUX EC50 ([2]; RAW cells, cAMP-stimulated minus plain medium efflux): NOT ACTIVE

Molecule: PVLDEFREKLNEELEALKQR7HLK (Ac-PVLDEFREKLNEELEALKQ[dGly(6-heptenyl)]LK; not fully specified (C-terminus); printed as PVLDEFREKLNEELEALKQR7HLK) [SEQ ID NO 22]
- activity in the cholesterol efflux / in vitro RCT assay, in words [2]: only slightly active

Molecule: PVLDEFREKLNEELEALKQS6HLK (Ac-PVLDEFREKLNEELEALKQ[S6H]LK; not fully specified (C-terminus); printed as PVLDEFREKLNEELEALKQS6HLK) [SEQ ID NO 25]
- activity in the cholesterol efflux / in vitro RCT assay, in words [2]: only slightly active

Molecule: PVLDEFRER5MELNER5MELEALKQKLK (Ac-PVLDEFRE[R5]LNE[R5]LEALKQKLK; not fully specified (C-terminus); bridges not given here) [SEQ ID NO 16]
- lipid binding / ability to clear liposome turbidity, in words [1]: good lipid binding
- activity in the cholesterol efflux / in vitro RCT assay, in words [2]: very low to no activity

Molecule: PVLDEFRES5HLNES5HLEALKQKLK (Ac-PVLDEFRE[S5H]LNE[S5H]LEALKQKLK; not fully specified (C-terminus)) [SEQ ID NO 15]
- lipid binding / ability to clear liposome turbidity, in words [1]: good lipid binding
- activity in the cholesterol efflux / in vitro RCT assay, in words [2]: very low to no activity

Molecule: Ac-PVLDE[Ala(5-hexenyl)]REKLNE[dNle(6-vinyl)]LEALKQKLK [S7H [F6-E13]R6H OPEN]
- ABCA1-dependent cholesterol efflux EC50 [3]: 1.3 µM
- EC50 in the cholesterol efflux assay [4]: 1.2 µM

B1: CONS[(RS)12H3^13] (peptide)
peptide: Ac-PVLDEFREKLNE[12H3]LEALKQKLK
modifications: not fully specified (C-terminus); printed as PVLDEFREKLNE-(RS)12H3-LEALKQKLK; reading uncertain
- EC50 in the RCT in vitro assay [4]: 0.2 to 0.4 µM
